Values of other authors as cited in patent US12390417B2, “Praziquantel formulations” (Villya LLC, priority 2020, dated 2025).
Converted amounts (≈) assume the structure as drawn.

Details: in water; according to the Merck Index

solubility: 400 µg/mL (≈ 1280 µM)
SMILES: O=C(C1CCCCC1)N1CC(=O)N2CCc3ccccc3C2C1 (racemic) [Praziquantel, (RS)-2-(Cyclohexylcarbonyl)-1,2,3,6,7,11b-hexahydro-4H-pyrazino[2,1-a]isoquinolin-4-one]
